This data set in a line: Fuel solubility: miscibility in blends with commercial diesel. The format is physicochemical. From the text:
Fuel solubility is a primary concern for diesel fuel applications. Not all highly polar oxygenates have good solubility in the current commercial diesel fuels.

The mark [1] stands for this setting: all blend ratios with commercial diesel.

As for `CCOCc1ccc(COCC)o1` [2,5-di(ethoxymethyl)furan], the “miscibility with commercial diesel” value under setting [1] is recorded as “miscible in all blend ratio's”.

With `CCOCc1ccc(COC(C)(C)C)o1` [5-(tertbutoxymethyl)-2-(ethoxymethyl)furan], the “miscibility with commercial diesel” value under setting [1] was “miscible in all blend ratio's”.

On to `CCOCc1ccc(C=O)o1` [EMF, 5-(ethoxymethyl)furfural], for which the “miscibility with commercial diesel” value is recorded as “completely miscible” (5 vol % blend with commercial diesel), “phase separation occurs” (25 vol % blend with diesel) and “phase separation occurs” (40 vol % blend with diesel).

Source of the values: US8231693B2, “5-substituted 2-(alkoxymethyl)furans” (Furanix Technologies B.V., priority 2007, dated 2012).
